Calls of active or inactive are those of the source.
How the values were obtained:
Mu-type opioid receptor = Mu-type opioid receptor (Homo sapiens, UniProt P35372); type: functional, cell-based;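 further: U2OS cells with beta-arrestin recruitment to OPRM1 by beta-gal complementation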
[1] = target: 5-hydroxytryptamine receptor 2A (Mus musculus, UniProt P35363); type: functional, cell-based;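 further: CHO-K1 cells with tagged receptor and beta-arrestin; agonist potency measured as compound-induced activation of the receptor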
Chain of 5-hydroxytryptamine receptor 2A (P35363 whole entry): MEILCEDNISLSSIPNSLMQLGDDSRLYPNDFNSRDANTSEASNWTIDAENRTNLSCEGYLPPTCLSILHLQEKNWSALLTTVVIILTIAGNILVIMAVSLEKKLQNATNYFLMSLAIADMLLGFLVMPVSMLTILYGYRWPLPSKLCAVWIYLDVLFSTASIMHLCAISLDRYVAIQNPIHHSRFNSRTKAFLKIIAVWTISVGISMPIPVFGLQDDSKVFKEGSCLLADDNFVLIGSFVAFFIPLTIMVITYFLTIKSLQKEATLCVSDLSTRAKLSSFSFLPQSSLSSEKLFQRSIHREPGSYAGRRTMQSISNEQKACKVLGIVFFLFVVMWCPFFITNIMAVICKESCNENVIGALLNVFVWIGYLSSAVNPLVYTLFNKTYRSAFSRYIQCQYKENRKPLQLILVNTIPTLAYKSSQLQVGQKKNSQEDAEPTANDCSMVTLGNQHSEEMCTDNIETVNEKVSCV

[2] = target: FAD-linked sulfhydryl oxidase ALR (Homo sapiens, UniProt P55789); assay: inhibitors of human ALR sulfhydryl oxidase, dose response, biochemical, H2O2 detection, luminescence, cherry-pick (AID 493248)
Chain of FAD-linked sulfhydryl oxidase ALR (P55789 whole entry): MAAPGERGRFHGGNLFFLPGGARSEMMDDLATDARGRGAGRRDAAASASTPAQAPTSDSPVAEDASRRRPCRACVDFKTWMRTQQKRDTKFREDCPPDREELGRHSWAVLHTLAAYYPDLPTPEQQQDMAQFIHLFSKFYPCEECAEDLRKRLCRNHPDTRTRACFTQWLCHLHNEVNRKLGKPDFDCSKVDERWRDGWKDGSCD

Plasmodium falciparum = assay: growth inhibition of P. falciparum 3D7, dose response, 3D7 strain, red blood cells, SYBR Green, cherry-picked (AID 652047); type: functional
[3] = target: T1, Probable nicotinate-nucleotide adenylyltransferase (Staphylococcus aureus (strain N315), UniProt P65502); type: functional, Staphylococcus aureus subsp. aureus N315;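 on IC50 Mean: confirmatory dose-response retesting of NadD inhibitor hits first found in an ultra-high-throughput screen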
T1 sequence (P65502 whole entry): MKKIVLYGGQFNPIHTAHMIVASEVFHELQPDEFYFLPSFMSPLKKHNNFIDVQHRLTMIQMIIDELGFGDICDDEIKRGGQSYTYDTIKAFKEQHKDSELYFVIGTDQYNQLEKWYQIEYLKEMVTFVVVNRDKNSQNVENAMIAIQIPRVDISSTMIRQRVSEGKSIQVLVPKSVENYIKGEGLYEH

[4] = target: T1, Probable nicotinate-nucleotide adenylyltransferase; type: functional, Staphylococcus aureus subsp. aureus N315; conditions: read-out: IC50_Mean
[5] = target: T2, Small ubiquitin-related modifier 1 (Homo sapiens, UniProt P63165); assay: inhibitors of SUMO1 peptide binding, dose response, biochemical, fluorescence polarization, uHTS hits (AID 624382); type: functional; conditions: read-out: IC50_Mean
T2 sequence (P63165 whole entry): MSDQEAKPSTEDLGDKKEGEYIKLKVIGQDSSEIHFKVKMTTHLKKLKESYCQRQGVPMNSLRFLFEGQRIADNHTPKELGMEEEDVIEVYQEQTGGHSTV

[6] = target: T2, Small ubiquitin-related modifier 1; assay: inhibitors of SUMO1 partner interactions, dose response, biochemical, FRET (AID 624383); type: functional; conditions: read-out: IC50_Mean
[7] = target: T3, Polyadenylate-binding protein 1 (Homo sapiens, UniProt P11940); assay: PABP1 MLLE–PAM2 interaction inhibitors, dose response, miRNA deadenylation inhibitor project, biochemical, fluorescence polarization, Cy5-PAM2 peptide, secondary (AID 602260); type: functional; conditions: read-out: IC50_Mean
T3 sequence (P11940 whole entry): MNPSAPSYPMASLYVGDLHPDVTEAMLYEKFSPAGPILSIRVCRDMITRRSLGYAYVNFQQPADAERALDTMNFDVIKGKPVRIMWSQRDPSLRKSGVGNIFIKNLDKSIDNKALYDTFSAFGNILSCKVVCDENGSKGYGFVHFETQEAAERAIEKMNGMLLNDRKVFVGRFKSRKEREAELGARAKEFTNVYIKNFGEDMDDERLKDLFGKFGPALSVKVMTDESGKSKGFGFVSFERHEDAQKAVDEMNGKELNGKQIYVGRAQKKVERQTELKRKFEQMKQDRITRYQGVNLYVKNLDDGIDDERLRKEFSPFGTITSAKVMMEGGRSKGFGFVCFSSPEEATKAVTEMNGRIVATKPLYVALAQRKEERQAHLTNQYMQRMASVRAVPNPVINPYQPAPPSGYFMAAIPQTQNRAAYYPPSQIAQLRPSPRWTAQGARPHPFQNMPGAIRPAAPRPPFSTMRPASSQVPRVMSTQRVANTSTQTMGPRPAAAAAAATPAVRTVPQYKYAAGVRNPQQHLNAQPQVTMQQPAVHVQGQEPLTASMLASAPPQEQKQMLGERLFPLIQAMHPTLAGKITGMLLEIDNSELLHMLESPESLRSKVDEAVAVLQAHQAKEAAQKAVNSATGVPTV

[8] = target: T4, Small ubiquitin-related modifier 2 (Homo sapiens, UniProt P61956); assay: inhibitors of SUMO2 protein-protein interaction, dose response, selectivity assay for SUMO1 interaction inhibitor project, biochemical, FRET, human SUMO2, uHTS hits (AID 624384); type: functional; conditions: read-out: IC50_Mean
T4 sequence (P61956 whole entry): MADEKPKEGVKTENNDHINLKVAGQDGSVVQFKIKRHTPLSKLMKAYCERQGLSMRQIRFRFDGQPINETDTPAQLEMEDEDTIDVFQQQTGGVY

[9] = target: T4, Small ubiquitin-related modifier 2; assay: SUMO2–SIM peptide binding inhibitors, dose response, selectivity assay for SUMO1 interaction inhibitor project, biochemical, fluorescence polarization, uHTS hits (AID 624385); type: functional; conditions: read-out: IC50_Mean
[10] = target: T3, Polyadenylate-binding protein 1; assay: PABP1 MLLE–PAM2 binding inhibitor potency, dose response, biochemical, fluorescence polarization, FITC-PAM2 peptide (AID 602259); type: functional; conditions: read-out: IC50_Mean
Nonstructural protein 1 = Nonstructural protein 1 (Influenza A virus, UniProt Q194T2); type: functional, Influenza A virus (A/California/07/2009(H1N1))
Chain of Nonstructural protein 1 (Q194T2 whole entry): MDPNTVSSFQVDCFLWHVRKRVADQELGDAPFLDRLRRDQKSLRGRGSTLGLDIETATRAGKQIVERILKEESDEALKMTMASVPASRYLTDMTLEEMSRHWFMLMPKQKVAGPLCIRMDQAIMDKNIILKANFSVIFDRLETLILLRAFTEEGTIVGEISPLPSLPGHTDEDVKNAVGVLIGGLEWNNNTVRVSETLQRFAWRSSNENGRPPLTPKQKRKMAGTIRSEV

[11] = target: T5, Heat shock factor protein 1 (Mus musculus, UniProt P38532); assay: inhibition of MG132-induced HSE-luciferase signal, confirmation, cell-based, NIH3T3, luminescence, dose retest (AID 2382); type: functional;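 further: NIH3T3 fibroblasts with HSF1-driven luciferase reporter stressed by proteasome inhibitor MG132; luminescence from HSF1-driven luciferase expression after 8 hours of MG132 stress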
T5 sequence (P38532 whole entry): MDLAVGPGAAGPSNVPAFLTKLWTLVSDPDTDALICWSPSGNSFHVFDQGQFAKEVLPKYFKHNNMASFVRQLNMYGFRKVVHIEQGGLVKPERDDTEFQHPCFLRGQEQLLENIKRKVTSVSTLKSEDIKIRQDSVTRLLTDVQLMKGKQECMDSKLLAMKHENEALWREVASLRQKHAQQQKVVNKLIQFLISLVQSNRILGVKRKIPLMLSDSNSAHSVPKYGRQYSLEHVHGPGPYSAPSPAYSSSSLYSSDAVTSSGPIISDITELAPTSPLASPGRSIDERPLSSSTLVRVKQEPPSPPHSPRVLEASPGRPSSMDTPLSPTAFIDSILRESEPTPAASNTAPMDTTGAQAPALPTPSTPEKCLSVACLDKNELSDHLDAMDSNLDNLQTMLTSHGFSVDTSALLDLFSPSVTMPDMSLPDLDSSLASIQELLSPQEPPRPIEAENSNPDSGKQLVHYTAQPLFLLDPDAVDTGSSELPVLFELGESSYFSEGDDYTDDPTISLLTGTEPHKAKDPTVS

[12] = target: Photoreceptor-specific nuclear receptor (Homo sapiens, UniProt Q9Y5X4); type: functional, cell-based;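 further: CHO-S cells with Gal4-NCOR and VP16-NR2E3 two-hybrid luciferase reporter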
Chain of Photoreceptor-specific nuclear receptor (Q9Y5X4 whole entry, the tested form may be a part): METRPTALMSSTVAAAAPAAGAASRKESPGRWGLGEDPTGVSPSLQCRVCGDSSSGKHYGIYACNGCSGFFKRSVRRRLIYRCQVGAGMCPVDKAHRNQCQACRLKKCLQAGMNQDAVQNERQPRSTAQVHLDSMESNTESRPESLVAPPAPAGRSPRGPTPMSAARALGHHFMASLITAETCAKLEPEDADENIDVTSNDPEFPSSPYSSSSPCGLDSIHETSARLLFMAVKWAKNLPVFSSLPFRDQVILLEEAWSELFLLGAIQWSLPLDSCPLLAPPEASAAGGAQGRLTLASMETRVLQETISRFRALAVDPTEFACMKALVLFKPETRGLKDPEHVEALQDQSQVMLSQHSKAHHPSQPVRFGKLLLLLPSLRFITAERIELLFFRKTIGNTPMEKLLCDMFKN

HEK293 [13] = assay: cells; type: functional, cell-based; conditions: Homo sapiens
HEK293 [14] = assay: NOD2 signaling inhibitors in MDP-stimulated cells, cell-based, uHTS, luminescence (AID 2001); type: functional; conditions: Homo sapiens
HEK293 [15] = assay: cells; type: functional, cell-based; conditions: Homo sapiens; remark: listed apart in the source
HEK293 [16] = assay: NOD1 signaling inhibitors, primary screen, cell-based, luminescence, uHTS (AID 1578); type: functional; conditions: Homo sapiens
[17] = target: T6, Low molecular weight phosphotyrosine protein phosphatase (Homo sapiens, UniProt P24666); type: functional; conditions: read-out: IC50_Mean
T6 sequence (P24666 whole entry): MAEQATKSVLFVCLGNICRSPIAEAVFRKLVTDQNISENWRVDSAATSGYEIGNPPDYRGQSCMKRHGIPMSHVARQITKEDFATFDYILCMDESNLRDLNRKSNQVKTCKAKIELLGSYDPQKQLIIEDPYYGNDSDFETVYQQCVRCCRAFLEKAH

[18] = target: T6, Low molecular weight phosphotyrosine protein phosphatase; type: functional; conditions: read-out: IC50_Mean; remark: listed apart in the source
[19] = target: Botulinum neurotoxin type F (Clostridium botulinum, UniProt P30996); assay: High-throughput multiplex microsphere dose response for inhibitors of toxin protease, specifically Botulinum neurotoxin light chain F protease, compounds from Cherry Pick 02.; type: functional; conditions: read-out: EC50_MICROM
Chain of Botulinum neurotoxin type F (P30996 1-436 limits assumed): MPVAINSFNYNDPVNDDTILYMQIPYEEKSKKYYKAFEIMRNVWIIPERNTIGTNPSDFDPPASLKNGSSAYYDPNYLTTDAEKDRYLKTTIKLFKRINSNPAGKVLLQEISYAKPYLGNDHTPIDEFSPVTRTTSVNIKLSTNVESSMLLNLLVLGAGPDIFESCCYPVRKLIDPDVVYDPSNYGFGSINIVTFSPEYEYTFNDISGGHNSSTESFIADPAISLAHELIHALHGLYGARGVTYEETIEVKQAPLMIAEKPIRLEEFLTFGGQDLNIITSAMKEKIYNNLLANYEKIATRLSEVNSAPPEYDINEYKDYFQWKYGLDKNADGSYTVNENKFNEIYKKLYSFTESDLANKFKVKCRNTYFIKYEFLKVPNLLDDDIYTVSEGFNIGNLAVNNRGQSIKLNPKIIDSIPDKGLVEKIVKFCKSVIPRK

Chain of Mu-type opioid receptor (P35372 whole entry): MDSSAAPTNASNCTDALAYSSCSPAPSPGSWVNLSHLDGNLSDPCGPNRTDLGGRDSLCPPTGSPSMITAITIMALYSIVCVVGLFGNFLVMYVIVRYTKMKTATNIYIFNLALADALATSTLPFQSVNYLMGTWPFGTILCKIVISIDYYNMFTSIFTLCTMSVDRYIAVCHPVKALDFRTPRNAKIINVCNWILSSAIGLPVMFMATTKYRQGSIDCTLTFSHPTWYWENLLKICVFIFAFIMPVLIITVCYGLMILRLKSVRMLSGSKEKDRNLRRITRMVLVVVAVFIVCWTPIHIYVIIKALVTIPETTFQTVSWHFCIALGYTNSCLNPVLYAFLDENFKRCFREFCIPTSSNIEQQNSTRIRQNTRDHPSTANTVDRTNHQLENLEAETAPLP

`CNCCc1ccc(O)c(O)c1` was tested, and the EC50 (Mu-type opioid receptor) was 92.3 µM (inactive), the EC50 [1] was 0.0874 µM (active) and the AC50 [2] was 4.11 µM (active).
For `Nc1nc(-c2ccccc2)c(-c2ccc([N+](=O)[O-])cc2)s1`, the AbsAC35 (Plasmodium falciparum) was 103.54 µM.
`O=C(Nc1ccc2nc(-c3ccco3)c(-c3ccco3)nc2c1)N1CCN(c2ccccn2)CC1` was tested, and the IC50 [3] was 8.98 µM (active), the IC50 [4] was 19.7 µM (active) and the IC50 [5] was 6.94 µM (active). The IC50 [6] was 51.7 µM (inactive), the IC50 [7] was > 66 µM (inactive) and the IC50 [8] was 24.6 µM (inactive). For the same molecule, the IC50 [9] was 8.13 µM (active) and the IC50 [10] was > 66 µM (inactive).
In the case of `CCOc1ccc(-c2nc(CSCC(=O)N3CCN(c4cccc(OC)c4)CC3)c(C)o2)cc1`, the IC50 (Nonstructural protein 1) is reported as > 100 µM (active), the EC50 [11] is reported as 48 µM (active) and the IC50 [12] is reported as 4 µM (active). For the same molecule, the IC50 (HEK293 [13]) was 4.42 µM (active), the IC50 (HEK293 [14]) was 5.09 µM (active) and the IC50 (HEK293 [15]) was 8.52 µM (active). For the same molecule, the EC50 (HEK293 [16]) was 5.87 µM (active).
For `O=C(CCCOc1ccc(Cl)cc1Cl)NNC(=O)c1ccc(NC(=O)c2ccccc2)cc1`, the IC50 [17] was 11.2 µM (active) and the IC50 [18] was 8.44 µM (active).
With `Cc1ccc(-c2nc3cc(C)c(Br)c(C)n3c2Cc2cccc(Cl)c2)cc1` the EC50 [19] was > 20 µM (inactive).

— ChEMBL document CHEMBL1201862, “PubChem BioAssay data set” (2004)
